In assay [1] the test system is K. pneumoniae 225. Nature of the assay: NCCLS microdilution susceptibility test. Particulars: Klebsiella pneumoniae, 225. The class given is cell-based, Klebsiella pneumoniae. Background: Dilution methods test growth across graded concentrations, often in twofold steps.
Assay [2] deals with E. coli C600N transconjugants. Description: Susceptibility of transconjugants. The class given is cell-based, Escherichia coli. The conditions noted are these: E. coli C600N transconjugants of E. aerogenes 187, 200, 220, 184. As for the experimental part: Antibiotic susceptibilities were determined by standard disk-diffusion (NCCLS Standard M2-A6) and agar-dilution (NCCLS Standard M7-A4) procedures. Disks were obtained from Becton Dickinson Microbiology Systems (Cockeysville, Md.). Disk-diffusion susceptibilities to the following antibiotics were determined, ampicillin; amoxicillin clavulanic acid; aztreonam; cefazolin; cefoxitin; cefuroxime; cefotaxime; ceftriaxone; ceftazidime; cefepime; imipenem; gentamicin; trimethoprim/sulfamethoxazole and ciprofloxacin. […] The following quality control strains were run simultaneously with the test organisms Escherichia coli ATCC 25922, Pseudomonas aeruginosa ATCC 27853, and E. coli ATCC 35218. Throughout this study, results were interpreted using NCCLS criteria for disk diffusion (NCCLS M2-A6) and broth dilution (NCCLS M7-A4).
[…]. The filter paper mating technique with overnight incubation at 37° C. were performed as described previously (Philippon et al., Antimicrob. Agents Chemother., 33:1131-1136 (1989)). Transconjugants were selected on LB (Luria Bertani) agar [Difco (Detroit, Mich.)] plates containing 12 μg per ml nalidixic acid and 20 μg per ml ampicillin.

The test system of assay [3] is E. aerogenes. The class given is cell-based, Enterobacter aerogenes. As for the experimental part: Antibiotic susceptibilities were determined by standard disk-diffusion (NCCLS Standard M2-A6) and agar-dilution (NCCLS Standard M7-A4) procedures. Disks were obtained from Becton Dickinson Microbiology Systems (Cockeysville, Md.). […] Throughout this study, results were interpreted using NCCLS criteria for disk diffusion (NCCLS M2-A6) and broth dilution (NCCLS M7-A4).

For assay [4], the system named is E. coli HB101 transformant (17 kb plasmid). Particulars: disk diffusion, Tr (17 kb) = transformant E. coli HB101.
A further assay concerns P. mirabilis. Description: Agar dilution MIC, South African isolates. The class given is cell-based, Proteus mirabilis. The conditions noted are these: 4 strains, tzp with tazobactam 4 μg/ml. The source says:
During a period of three months in 1993, […] strains of Klebsiella pneumoniae (13 blood, 5 burn, 7 wound, 11 tracheal isolates), 4 strains of Proteus mirabilis (all wound isolates) and 4 strains of Escherichia coli (1 blood, 1 burn, 2 wound isolates) were collected from patients at the following medical centers in South Africa: Tygerberg Hospital near Cape Town, King Edward VIII Hospital in Durban, Chris Hani Baragwanath Hospital in Soweto and Pretoria Academic Hospital in Pretoria. The strains were provided in response to a request for all strains of Enterobacteriaceae, lacking inducible beta-lactamases, that were intermediate or resistant to cefotaxime or ceftazidime. […] Therefore accurate prevalence data were not obtained.
Antibiotic susceptibility was determined by standard disk diffusion (NCCLS Standard M2-T4, 1994) and agar dilution (NCCLS Standard M7-T2, 1994) procedures. Standard powders of antimicrobial agents were kindly provided by the following companies: piperacillin and tazobactam (Lederle Laboratories, Wayne, N.J.); cefoxitin and imipenem, (Merck, Rathway, N.J.); cefotaxime, (Hoechst-Roussel Pharmaceuticals Inc., Somerville, N.J.); ceftazidime, (Glaxo Group Research Ltd., Greenford, England); aztreonam and cefepime, (Bristol-Myers Squibb, Princeton, N.J.). Disks for agar diffusion were obtained from Becton Dickinson Microbiology Systems (Cockeysville, Md.). For quality control purposes, the following quality control strains were run simultaneously with the test organisms E. coli ATCC 25922, Pseudomonas aeruginosa ATCC 27853, E. coli ATCC 35218, and Staphylococcus aureus ATCC 29213. Throughout this study, results were interpreted using NCCLS criteria for disk diffusion (NCCLS Standard M2-T4, 1994) and broth dilution (NCCLS Standard M7-T2, 1994).

The test system of assay [5] is E. aerogenes. Description: Vitek automated susceptibility system. The format is cell-based, Enterobacter aerogenes. The conditions noted are these: the 31 selected E. aerogenes strains. The source says:
Among all E. aerogenes recovered from clinical specimens during an eighteen month period (September 1993 to March 1995), thirty-one E. aerogenes strains showing a resistance phenotype different from that observed with derepressed mutants normally encountered at the Hunter Holmes McGuire Medical Center, Richmond, Va. were selected for this study. The strains selected were intermediate to ceftriaxone but resistant to ceftazidime when tested with the Vitek automated susceptibility system (bioMerieux Vitek, St. Louis, Mo.). Derepressed mutants previously isolated from this center were usually resistant to both ceftriaxone and ceftazidime.

Assay [6] has as its target single beta-lactamase in K. pneumoniae cell extracts (Escherichia coli, UniProt P62593, E102K/R162S). Nature of the assay: Spectrophotometric hydrolysis assay on crude beta-lactamase extracts. The conditions noted are these: K. pneumoniae Pit 16 extract, beta-lactamase pI 5.6; 100 μM substrate.
In assay [7] the target is single beta-lactamase in K. pneumoniae cell extracts (Klebsiella pneumoniae, UniProt P0AD64, E235K/G234S). The description is as above. The conditions noted are these: K. pneumoniae Pit 82 extract, beta-lactamase pI 8.2; 100 μM substrate.
The target of assay [8] is single beta-lactamase in K. pneumoniae cell extracts (Klebsiella pneumoniae, UniProt P0AD64, G234S). The description is as above. The conditions noted are these: K. pneumoniae Pit 100 extract, beta-lactamase pI 7.6; 100 μM substrate.
In another assay the test system is K. pneumoniae. Description: Agar dilution MIC, South African isolates. The class given is cell-based, Klebsiella pneumoniae. The conditions noted are these: tzp with tazobactam 4 μg/ml. The source says: (§1) The strains were provided in response to a request for all strains of Enterobacteriaceae, lacking inducible beta-lactamases, that were intermediate or resistant to cefotaxime or ceftazidime. […]
For orientation: In agar dilution, organisms are placed on agar that contains the substance at set levels.

The test system of assay [9] is E. coli C600 transconjugant. Particulars: disk diffusion, Tc = transconjugate E. coli C600.
Another assay deals with E. coli. Description: Agar dilution MIC, South African isolates. The format is cell-based, Escherichia coli. Particulars: tzp with tazobactam 4 μg/ml.
Source text: as §1

The test system of assay [10] is K. pneumoniae 225. Nature of the assay: NCCLS disk diffusion assay. The format is cell-based, Klebsiella pneumoniae. The conditions noted are these: disk diffusion, Kleb 225. Background: A growth-free zone around the sample is the usual read-out of agar diffusion tests.
Assay [11] addresses single beta-lactamase in P. mirabilis cell extracts (Escherichia coli, UniProt P62593, E102K/R162S). Nature of the assay: Spectrophotometric hydrolysis assay on crude beta-lactamase extracts. Particulars: P. mirabilis Pit 85 extract, beta-lactamase pI 5.6; 100 μM substrate.
For assay [12], the system named is K. pneumoniae 225. Description: Three-dimensional test (enzymatic inactivation of antibiotics). The conditions noted are these: beta-lactamase-mediated hydrolysis by K. pneumoniae 225, lawn E. coli ATCC 25922.
Assay [13] addresses single beta-lactamase in E. coli cell extracts (Escherichia coli, UniProt P62593, E102K/R162S). Nature of the assay: Spectrophotometric hydrolysis assay on crude beta-lactamase extracts. The conditions noted are these: E. coli Pit 64 extract, beta-lactamase pI 5.6; 100 μM substrate.
The subject of assay [14] is K. pneumoniae 225. The conditions noted are these: test drug disk around amoxicillin-clavulanate disk.
The target in assay [15] is beta-lactamases in sonic extracts of K. pneumoniae (Klebsiella pneumoniae, UniProt P0AD64, E235K/G234S). Particulars: Kpn2, beta-lactamase pI 8.2 (SHV-5).
The target in assay [16] is beta-lactamases in sonic extracts of K. pneumoniae (Klebsiella pneumoniae, UniProt P0AD64). Particulars: Kpn1, beta-lactamase pI 7.6 (SHV-1).
Assay [17] deals with beta-lactamases in sonic extracts of K. pneumoniae.
Assay [18] has as its target beta-lactamases in sonic extracts of K. pneumoniae (Escherichia coli, UniProt P62593).
The test system of assay [19] is beta-lactamases in sonic extracts of E. aerogenes. Nature of the assay: Isoelectric focusing overlay: cefotaxime hydrolysis, inhibitors, induction.
Assay [20] deals with beta-lactamases in sonic extracts of E. coli. Nature of the assay: Isoelectric focusing overlay: cefotaxime hydrolysis and inhibitors.
Assay [21] addresses beta-lactamases in sonic extracts of E. coli (Escherichia coli, UniProt P62593). The description is as above.
The mark [22] stands for this setting: Kpn1, beta-lactamase pI 5.6 (TEM-10 or 26).
Setting [23] is: Kpn2, beta-lactamase pI 7.6 (SHV-2 or 8).
The mark [24] stands for this setting: Kpn3, beta-lactamase pI 8.0 (AmpC).
[25] abbreviates: Kpn2, beta-lactamase pI 5.4 (TEM-1).
The mark [26] stands for this setting: Kpn3, beta-lactamase pI 5.4 (TEM-1).
[27] abbreviates: SHV-3 strain (1), Bush group 1 enzyme pI 8.3.
Setting [28] is: SHV-3 strain (1), Bush group 2be enzyme pI 6.9.
Setting [29] is: SHV-4 strains (29), Bush group 1 enzyme pI 8.3.
Setting [30] is: SHV-4 strains (29), Bush group 2be enzyme pI 7.8.
The mark [31] stands for this setting: SHV-5 strain (1), Bush group 1 enzyme pI 8.3.
[32] abbreviates: SHV-5 strain (1), Bush group 2Be enzyme pI 8.0.
[33] abbreviates: Ec1, beta-lactamase pI 5.6 (TEM-10 or 26).
[34] abbreviates: Ec2, beta-lactamase pI 7.6 (SHV-2 or 8).
Setting [35] is: Ec1, beta-lactamase pI 5.4 (TEM-1).
Setting [36] is: Ec2, beta-lactamase pI 5.4 (TEM-1).

Converted amounts (≈) assume the structure as drawn. Like-named read-outs stand apart in the source and are kept apart here.

On to `CC(C)(O/N=C(\C(=O)N[C@@H]1C(=O)N2C(C(=O)[O-])=C(C[n+]3ccccc3)CS[C@H]12)c1csc(N)n1)C(=O)O` [ceftazidime], for which the MIC (in general, the smallest concentration in the dilution series that meets the test's criterion for growth inhibition) with K. pneumoniae 225 [1] is > 64 mg/L. The “susceptibility after transfer of plasmids encoding SHV beta-lactamase genes” value in assay [2] is recorded as “decreased susceptibility”. The MIC range in the assay with E. aerogenes [3] (1 E. aerogenes strain with Bush group 1 and group 2be (SHV-3) enzymes) was 4 mg/L (≈ 7.32 µM); with E. aerogenes [3] (1 E. aerogenes strain with Bush group 1 and group 2be (SHV-5) enzymes), 32 mg/L (≈ 58.5 µM); with E. aerogenes [3] (29 E. aerogenes strains with Bush group 1 and group 2be (SHV-4) enzymes), 8 to 32 mg/L; in the assay with P. mirabilis, 16 to 64 mg/L; in the assay on K. pneumoniae (resistance phenotype Kpn1, 8 strains), >128 mg/L; with K. pneumoniae (resistance phenotype Kpn2, 28 strains), 4 to 128 mg/L. Besides, the MIC range was 4 mg/L in the assay with K. pneumoniae (resistance phenotype Kpn3 (K. pneumoniae Pit 68), 1 strain, listed as caz); >128 mg/L in the assay on E. coli (resistance phenotype Ec1, 3 strains); 4 mg/L in the assay with E. coli (resistance phenotype Ec2, 1 strain). Also, the “susceptibility by MIC” value in the assay on E. aerogenes [3] (all E. aerogenes strains) was “decreased susceptibility”. In addition, the “Zone Size” value amounted to 33 mm in assay [4], 7 mm in [9] and 8 mm in the assay with K. pneumoniae 225 [10]. In addition, in the assay with E. aerogenes [5], the Vitek susceptibility result is listed as “resistant”. In addition, the Hydrolysis in assay [6] is 3 nmol of substrate hydrolyzed/m; in assay [7], 0.2 nmol of substrate hydrolyzed/m; in assay [8] it was 0.1 nmol of substrate hydrolyzed/m; in assay [11], 1 nmol of substrate hydrolyzed/m; in [13] it was 2 nmol of substrate hydrolyzed/m. The three dimensional test result in the assay with K. pneumoniae 225 [12] was “positive”. Moreover, the “clavulanate double-disk potentiation test” value in the assay with K. pneumoniae 225 [14] is listed as “positive”.

As for `O=C(O)[C@H]1/C(=C/CO)O[C@@H]2CC(=O)N21` [clavulanate], the “Inhibited by” value is on record as “No” in assay [15]; “Yes” in assay [16]; “Yes” in assay [17] (setting [22]); “Yes” in assay [17] (setting [23]); “No” in assay [17] (setting [24]); “Yes” in [18] (setting [25]). The “Inhibited by” value in assay [18] (setting [26]) is “Yes”; in assay [19] (setting [27]) it was “no”; in assay [19] (setting [28]), “yes”; in assay [19] (setting [29]), “no”; in [19] (setting [30]), “yes”; in assay [19] (setting [31]) it was “no”. The “Inhibited by” value in assay [19] (setting [32]) is recorded as “yes”; in [20] (setting [33]), “Yes”; in [20] (setting [34]), “Yes”; in assay [21] (setting [35]), “Yes”; in [21] (setting [36]), “Yes”.

On to `Cc1onc(-c2ccccc2Cl)c1C(=O)N[C@@H]1C(=O)N2[C@@H]1SC(C)(C)[C@@H]2C(=O)O` [cloxacillin], for which the “Inhibited by” value in assay [15] is reported as “Yes”; in [16], “No”; in assay [17] (setting [22]) it was “No”; in assay [17] (setting [23]), “No”; in assay [17] (setting [24]) it was “Yes”; in assay [18] (setting [25]), “No”. Besides, the “Inhibited by” value in [18] (setting [26]) is given as “No”; in assay [19] (setting [27]) it was “yes”; in assay [19] (setting [28]) it was “no”; in assay [19] (setting [29]), “yes”; in assay [19] (setting [30]) it was “no”; in [19] (setting [31]), “yes”. For the same compound, the “Inhibited by” value in [19] (setting [32]) is recorded as “no”; in assay [20] (setting [33]), “No”; in [20] (setting [34]), “No”; in [21] (setting [35]), “No”; in assay [21] (setting [36]) it was “No”.

Source of the values: patent US6893846B2, “Primers for use in detecting beta-lactamases” (priority 1998, dated 2005).
